Experimental data: patent publication US20050233973A1, “Tri-peptides for antidepressant applications” (priority 1997, published 2005)
Non-standard residues stand in square brackets, D forms with d. Residues, ends and D or L forms follow the SMILES beside them. pGlu = O=C1CC[C@@H](C(=O)O)N1

Assays:
[1] = tested on: Porsolt forced swim animal model of depression; assay: Porsolt swim test; assay type: in vivo, rats
Protocol: Total immobility time versus swim time was recorded. Both high-dose (0.5 mg/kg sc) and low-dose injections (0.05 mg/kg ip) were used.

[2] = Binding capacity / concentration in brain areas
[3] = Serum T3 and T4 levels in Porsolt test animals; assay type: in vivo, rats; conditions: animals of the Porsolt test
Protocol: A Porsolt swim test with rats was used to examine the antidepressant effects of peptides where R^2=Glu or R^2=Phe, as set forth in Lloyd, R. L. et al., Pharamcology, Biochemistry and Behavior, 70:15-22 (2001), incorporated herein by reference. […] No effect of the blocking variable or interaction of the blocking variable with treatment was found.
Using the animal models of Example 11, T3 (triiodothyronine) and T4 (thyroxine) levels were tested. Serum T3 was determined by […], using fluorescence polarization of a fixed concentration of a fluorescent analog of T3 as provided in the Abbott IMX System. T4 was also determined by radioimmunoassay. With EEP, no changes in T3 were observed. […] With ELP (where R^2 is Leu) and EFP there was an increase in T3, but this was not correlated to swim scores, with ELP not producing a behavioral effect, and EFP producing a marginal behavioral effect.

[4] = molecular target: T1, HEK293 cells expressing TRHR-1 (Mus musculus, UniProt P21761); assay: Intracellular calcium response (fura2), TRHR-1 cells; assay type: cell-based
T1 construct: expressed in transfected cells
T1 sequence (P21761 1-393): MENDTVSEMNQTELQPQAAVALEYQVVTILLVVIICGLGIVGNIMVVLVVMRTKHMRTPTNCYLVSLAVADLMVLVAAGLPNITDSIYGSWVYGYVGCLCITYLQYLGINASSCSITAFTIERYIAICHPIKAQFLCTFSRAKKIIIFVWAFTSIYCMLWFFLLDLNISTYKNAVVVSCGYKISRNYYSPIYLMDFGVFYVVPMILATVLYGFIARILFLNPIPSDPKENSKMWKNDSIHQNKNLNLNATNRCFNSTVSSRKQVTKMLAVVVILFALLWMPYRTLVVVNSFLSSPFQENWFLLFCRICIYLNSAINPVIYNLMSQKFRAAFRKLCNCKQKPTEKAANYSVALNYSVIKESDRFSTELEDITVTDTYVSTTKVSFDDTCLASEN

TRH receptor-2 (TRHR-2) = molecular target: T2, TRH receptor-2 (TRHR-2) (Rattus norvegicus, UniProt A6IZR3); assay: [3H]TRH competition binding, HEK293 cells expressing TRHR-2
T2 sequence (A6IZR3 1-352): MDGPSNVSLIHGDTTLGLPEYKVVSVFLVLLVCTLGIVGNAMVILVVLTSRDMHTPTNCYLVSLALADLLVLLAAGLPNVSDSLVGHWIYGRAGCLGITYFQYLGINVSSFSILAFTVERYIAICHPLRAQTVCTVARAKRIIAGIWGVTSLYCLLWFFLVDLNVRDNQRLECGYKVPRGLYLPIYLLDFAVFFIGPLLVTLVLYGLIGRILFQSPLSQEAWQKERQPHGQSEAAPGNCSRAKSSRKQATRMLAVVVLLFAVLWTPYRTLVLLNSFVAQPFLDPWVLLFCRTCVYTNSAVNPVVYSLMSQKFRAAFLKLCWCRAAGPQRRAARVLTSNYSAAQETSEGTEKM

[5] = tested on: pentobarbital-anesthetized rats; assay type: in vivo, male Wistar rats; conditions: IC injection of 10 μg
Protocol: Twenty minutes after loss of the righting reflex, 10 μL of either sterile saline or peptide of this invention (1 or 10 μg/10 μL sterile saline) was administered by intracisternal (IC) injection. The time from IC injection to recovery of the righting reflex, as measured three times within 10 seconds, was recorded.

[6] = tested on: CR-V3-B53 antibody (raised to TRH); conditions: tracer 125I-TRH; assay standard = 1.00
[7] = tested on: 465B12 antibody (raised to TRH); conditions: tracer 125I-TRH; assay standard = 1.00
[8] = tested on: EEP (R^2=Glu) antibody (580B6); conditions: tracer 125I-TRH; assay standard = 1.00
TRH receptor-1 (TRHR-1) = molecular target: T3, TRH receptor-1 (TRHR-1) (Mus musculus, UniProt P21761); assay: [3H]TRH competition binding, HEK293 cells expressing TRHR-1
T3 sequence (P21761 1-393): T1 sequence (P21761 1-393)

control HEK293 cells = assay: Intracellular calcium response (fura2), non-transfected control cells; assay type: cell-based; conditions: Ca2+-free buffer
Protocol: The ability of peptides of the formula pGlu-[…] to stimulate an intracellular calcium response in transfected HEK293 of Example 5 was evaluated, to determine whether the peptides behave as agonists. […] The coverslip was then rinsed and placed in a Sykes-Moore chamber covered with 1 mL Ca^2+ and Mg^2+ free HBSS. Imaging was performed on a Nikon inverted microscope with a DAGE CCD72 camera and […] intensifier system. Cells were alternately excited at 340 and 380 nm and emission was measured at 490 nm; 340/380 ratios were obtained every 1.2 seconds and analyzed using Image-1 software from Universal Imaging Corporation. […] Peak responses from between 33 and 120 individual cells were averaged, and responses to TRH were measured with each set of cells as a standard. Most of the peptides caused a small increase in intracellular Ca^2+ when added to control HEK293 cells bathed in Ca^2+-containing medium, but with the exception of the R^2=Leu peptide, none of them evoked an appreciable Ca^2+ response in Ca^2+-free HBSS, which was used for all experiments.

[9] = molecular target: T4, HEK293 cells expressing TRHR-2 (Rattus norvegicus, UniProt A6IZR3); assay: Intracellular calcium response (fura2), TRHR-2 cells; assay type: cell-based
T4 sequence (A6IZR3 1-352): T2 sequence (A6IZR3 1-352)

Row | Compound | antidepressant effect compared to saline (total immobility time) ([1]; low-dose (0.05 mg/kg ip), three injections) | binding capacity in limbic and motor areas of the brain compared to the other TRH analogs [2] | increase in T3 [3] [%] | increase in T4 [3] [%] | ability to block the Ca2+ response to low concentrations of TRH (antagonism) [4] | IC50 (TRH receptor-2 (TRHR-2)) [µM] | reduction in pentobarbitol-induced sleep time (analeptic effect) [5] | relative potency for displacement of assay tracer [6] | relative potency for displacement of assay tracer [7] | relative potency for displacement of assay tracer [8] | IC50 (TRH receptor-1 (TRHR-1)) [µM] | antidepressant effect compared to saline (total immobility time) ([1]; dose not stated) | Ca2+ response (control HEK293 cells) | ability to block the Ca2+ response to low concentrations of TRH (antagonism) [9] | change in T3 [3]
1 | [pGlu]-Lys-Pro-NH2 [EKP] | effective | significant binding capacity | 48 | 57 | – | – | – | – | – | – | – | – | – | – | –
2 | CC(C)C[C@H](NC(=O)[C@@H]1CCC(=O)N1)C(=O)N1CCC[C@H]1C(N)=O [R^2 = Leu, pGlu-Leu-Pro-NH2] ([pGlu]-Leu-Pro-NH2) | – | – | – | – | no effect was found | 1.95 | had an analeptic effect | 0.088 | 0.301 | 5.00 | 5.47 | statistically meaningful behavioral effects were not observed | small Ca^2+ transient | no effect was found | increase
